Test results as given in patent publication US10597388B2, “Pyridazinone herbicides” (FMC CORPORATION, priority 2014, dated 2020).

Tests used:
Assay type in all cases: in vivo
corn (Zea mays) = assay: Test A greenhouse herbicide test, pre- and postemergence; settings: Postemergence; for Plant response rating, Corn: 125 g ai/ha, 0 to 100 scale where 0 is no effect and 100 is complete control; for Corn plant response rating: 500 g ai/ha, 0 to 100 scale, 0 is no effect, 100 is complete control
Description: (§1) Seeds of plant species selected from barnyardgrass (Echinochloa crus-galli), kochia (Kochia scoparia), ragweed (common ragweed, Ambrosia elatior), ryegrass, Italian (Italian ryegrass, Lolium multiflorum), crabgrass, large (large crabgrass, Digitaria sanguinalis), foxtail, giant (giant foxtail, Setaria faberii), momingglory (Ipomoea spp.), pigweed (Amaranthus retroflexus), velvetleaf (Abutilon theophrasti), wheat (Triticum aestivum), and corn (Zea mays) were planted into a blend of loam soil and sand and treated preemergence with a directed soil spray using test chemicals formulated in a non-phytotoxic solvent mixture which included a surfactant.
(§2) At the same time, plants selected from these crop and weed species and also blackgrass (Alopecurus myosuroides), and galium (catchweed bedstraw, Galium aparine) were planted in pots containing the same blend of loam soil and sand and treated with postemergence applications of test chemicals formulated in the same manner. Plants ranged in height from 2 to 10 cm and were in the one- to two-leaf stage for the postemergence treatment. Treated plants and untreated controls were maintained in a greenhouse for approximately 10 d, after which time all treated plants were compared to untreated controls and visually evaluated for injury. Plant response ratings, summarized in Table A, are based on a 0 to 100 scale where 0 is no effect and 100 is complete control. A dash (-) response means no test result.

[1] = tested on: wheat (Triticum aestivum); assay: as above; settings: Postemergence; for Plant response rating, Wheat: 125 g ai/ha, 0 to 100 scale where 0 is no effect and 100 is complete control; for Wheat plant response rating: 500 g ai/ha, 0 to 100 scale, 0 is no effect, 100 is complete control
Description: as §1, §2

[2] = tested on: barnyardgrass (Echinochloa crus-galli); assay: as above
Description: as §1, §2

[3] = tested on: pigweed (Amaranthus retroflexus); assay: as above
Description: as §1, §2

kochia (Kochia scoparia) = assay: as above
Description: as §1, §2

[4] = tested on: ragweed (common ragweed, Ambrosia elatior); assay: as above
Description: as §1, §2

[5] = tested on: foxtail, giant (giant foxtail, Setaria faberii); assay: as above
Description: as §1, §2

[6] = tested on: ryegrass, Italian (Italian ryegrass, Lolium multiflorum); assay: as above
Description: as §1, §2

[7] = tested on: sedge, umbrella (small-flower umbrella sedge, Cyperus difformis); assay: Test B flooded paddy test; settings: 250 g ai/ha, Flood; visual rating on scale of 0 to 100 where 0 is no effect and 100 is complete control; 13 to 15 d after treatment
Method: (§3) Plant species in the flooded paddy test selected from rice (Oryza sativa), sedge, umbrella (small-flower umbrella sedge, Cyperus difformis), ducksalad (Heteranthera limosa), and barnyardgrass (Echinochloa crus-galli) were grown to the 2-leaf stage for testing. At time of treatment, test pots were flooded to 3 cm above the soil surface, treated by application of test compounds directly to the paddy water, and then maintained at that water depth for the duration of the test. Treated plants and controls were maintained in a greenhouse for 13 to 15 d, after which time all species were compared to controls and visually evaluated. Plant response ratings, summarized in Table B, are based on a scale of 0 to 100 where 0 is no effect and 100 is complete control. A dash (-) response means no test result.

[8] = tested on: barnyardgrass (Echinochloa crus-galli); assay: Test B flooded paddy test; settings: 250 g ai/ha, Flood; visual rating on scale of 0 to 100 where 0 is no effect and 100 is complete control; 13 to 15 d after treatment
Method: as §3

[9] = tested on: ducksalad (Heteranthera limosa); assay: Test B flooded paddy test; settings: 250 g ai/ha, Flood; visual rating on scale of 0 to 100 where 0 is no effect and 100 is complete control; 13 to 15 d after treatment
Method: as §3

rice (Oryza sativa) = assay: Test B flooded paddy test; settings: 250 g ai/ha, Flood; visual rating on scale of 0 to 100 where 0 is no effect and 100 is complete control; 13 to 15 d after treatment
Method: as §3

[10] = tested on: blackgrass (Alopecurus myosuroides); assay: Test A greenhouse herbicide test, postemergence; settings: for Plant response rating, Blackgrass: 125 g ai/ha, 0 to 100 scale where 0 is no effect and 100 is complete control; for Blackgrass plant response rating: 500 g ai/ha, 0 to 100 scale, 0 is no effect, 100 is complete control
Method in brief: (§4)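 Pot-grown plants (loam soil/sand blend), 2–10 cm tall at the one- to two-leaf stage, received postemergence sprays of formulated test chemical. After about 10 d in the greenhouse, injury was rated visually against untreated controls on a 0 (no effect) to 100 (complete control) scale.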

[11] = tested on: galium (catchweed bedstraw, Galium aparine); assay: Test A greenhouse herbicide test, postemergence; settings: for Plant response rating, Galium: 125 g ai/ha, 0 to 100 scale where 0 is no effect and 100 is complete control; for Galium plant response rating: 500 g ai/ha, 0 to 100 scale, 0 is no effect, 100 is complete control
Method in brief: as §4

[12] = Postemergence, 125 g ai/ha, 0 to 100 scale where 0 is no effect and 100 is complete control
[13] = Postemergence, 500 g ai/ha, 0 to 100 scale, 0 is no effect, 100 is complete control
[14] = Preemergence, 125 g ai/ha, 0 to 100 scale where 0 is no effect and 100 is complete control
[15] = Preemergence, 500 g ai/ha, 0 to 100 scale, 0 no effect, 100 complete control

Structure (SMILES)	Plant response rating, Corn (corn (Zea mays))	Corn plant response rating (corn (Zea mays))	Plant response rating, Wheat [1]	Wheat plant response rating [1]	Plant response rating, Barnyardgrass [2, 12]	Barnyardgrass plant response rating [2, 13]	Barnyardgrass plant response rating [2, 14]	Plant response rating, Barnyardgrass [2, 15]	Plant response rating, Pigweed [3, 12]	Pigweed plant response rating [3, 13]	Pigweed plant response rating [3, 14]	Plant response rating, Pigweed [3, 15]	Plant response rating, Kochia (kochia (Kochia scoparia); [12])	Kochia plant response rating (kochia (Kochia scoparia); [13])	Kochia plant response rating (kochia (Kochia scoparia); [14])	Plant response rating, Kochia (kochia (Kochia scoparia); [15])	Plant response rating, Ragweed [4, 12]	Ragweed plant response rating [4, 13]	Ragweed plant response rating [4, 14]	Plant response rating, Ragweed [4, 15]	also measured
CC(=O)Oc1c(C)nn(C)c(=O)c1-c1c(C)sc2cc(C)cc(C)c12 [Compound 44]	0	0	0	0	0	0	0	0	0	0	0	0	0	0	0	0	0	0	0	10	Plant response rating, Foxtail, Giant [5, 12]: 0; Foxtail, Giant plant response rating [5, 13]: 0; Foxtail, Giant plant response rating [5, 14]: 0; Plant response rating, Foxtail, Giant [5, 15]: 0; Plant response rating, Ryegrass, Italian [6, 12]: 0; Ryegrass, Italian plant response rating [6, 13]: 0; Ryegrass, Italian plant response rating [6, 14]: 0; Plant response rating, Ryegrass, Italian [6, 15]: 0; Plant response rating, Sedge, Umbrella [7]: 0; Plant response rating, Barnyardgrass [8]: 0; Plant response rating, Ducksalad [9]: 0; Plant response rating, Rice (rice (Oryza sativa)): 0; Plant response rating, Blackgrass [10]: 0; Blackgrass plant response rating [10]: 0; Plant response rating, Galium [11]: 30; Galium plant response rating [11]: 70
Cc1cc(C)c2c(-c3c(OC(=O)C(C)(C)C)c(C)nn(C)c3=O)c(C)sc2c1 [Compound 45]	0	0	0	0	0	0	0	0	0	0	0	0	0	0	0	0	0	0	0	0	Plant response rating, Foxtail, Giant [5, 12]: 0; Foxtail, Giant plant response rating [5, 13]: 0; Foxtail, Giant plant response rating [5, 14]: 0; Plant response rating, Foxtail, Giant [5, 15]: 0; Plant response rating, Ryegrass, Italian [6, 12]: 0; Ryegrass, Italian plant response rating [6, 13]: 0; Ryegrass, Italian plant response rating [6, 14]: 0; Plant response rating, Ryegrass, Italian [6, 15]: 0; Plant response rating, Sedge, Umbrella [7]: 0; Plant response rating, Barnyardgrass [8]: 0; Plant response rating, Ducksalad [9]: 0; Plant response rating, Rice (rice (Oryza sativa)): 0; Plant response rating, Blackgrass [10]: 0; Blackgrass plant response rating [10]: 0; Plant response rating, Galium [11]: 0; Galium plant response rating [11]: 0
Cc1ccc(-c2c(O)cnn(C)c2=O)c2ccccc12 [Compound 50]	0	0	0	0	0	0	0	0	20	50	0	0	0	20	0	0	0	20	0	0	Plant response rating, Foxtail, Giant [5, 12]: 0; Foxtail, Giant plant response rating [5, 13]: 0; Foxtail, Giant plant response rating [5, 14]: 0; Plant response rating, Foxtail, Giant [5, 15]: 0; Plant response rating, Ryegrass, Italian [6, 12]: 20; Ryegrass, Italian plant response rating [6, 13]: 40; Ryegrass, Italian plant response rating [6, 14]: 0; Plant response rating, Ryegrass, Italian [6, 15]: 10; Plant response rating, Sedge, Umbrella [7]: 0; Plant response rating, Barnyardgrass [8]: 0; Plant response rating, Ducksalad [9]: 0; Plant response rating, Rice (rice (Oryza sativa)): 0; Plant response rating, Blackgrass [10]: 0; Blackgrass plant response rating [10]: 10; Plant response rating, Galium [11]: 60; Galium plant response rating [11]: 80
